One assay has as its target T1, mouse TRPC4β (Mus musculus, UniProt Q9QUQ5).
T1 construct: expressed in transfected cells; host or cells: HEK293 (ATCC CRL 1573), stably transfected, tetracycline-induced
T1 sequence (Q9QUQ5 1-890 isoform Q9QUQ5-2): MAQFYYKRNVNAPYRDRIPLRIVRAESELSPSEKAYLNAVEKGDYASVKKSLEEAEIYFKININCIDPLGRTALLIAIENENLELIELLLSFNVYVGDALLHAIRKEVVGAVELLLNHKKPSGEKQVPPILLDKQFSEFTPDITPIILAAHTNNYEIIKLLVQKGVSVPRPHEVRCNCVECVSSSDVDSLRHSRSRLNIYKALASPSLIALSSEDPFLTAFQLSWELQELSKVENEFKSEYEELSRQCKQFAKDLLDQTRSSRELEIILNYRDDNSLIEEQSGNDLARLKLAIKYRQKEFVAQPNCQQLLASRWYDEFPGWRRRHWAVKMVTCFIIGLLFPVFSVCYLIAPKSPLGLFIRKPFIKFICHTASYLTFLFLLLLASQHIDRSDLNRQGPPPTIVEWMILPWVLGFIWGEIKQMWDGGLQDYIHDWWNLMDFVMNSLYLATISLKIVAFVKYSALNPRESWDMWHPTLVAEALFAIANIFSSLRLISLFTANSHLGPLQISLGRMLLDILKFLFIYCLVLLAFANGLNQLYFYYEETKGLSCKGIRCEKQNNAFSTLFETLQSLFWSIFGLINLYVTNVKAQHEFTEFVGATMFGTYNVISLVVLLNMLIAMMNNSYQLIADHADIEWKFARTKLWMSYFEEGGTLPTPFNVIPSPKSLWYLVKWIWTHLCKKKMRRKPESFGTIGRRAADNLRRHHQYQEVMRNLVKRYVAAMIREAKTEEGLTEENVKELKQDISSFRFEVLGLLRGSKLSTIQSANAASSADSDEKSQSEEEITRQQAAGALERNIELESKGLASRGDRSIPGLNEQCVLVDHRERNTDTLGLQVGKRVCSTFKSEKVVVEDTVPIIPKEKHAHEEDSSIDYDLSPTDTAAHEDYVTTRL
Put plainly: FLIPR Ca2+ influx assay (Fluo-4) with 365/447 nm photoswitching, HEK293 stably expressing mouse TRPC4β. It is filed as cell-based. Conditions: Z* = mostly-Z PSS under 365 nm LED; Fluo-4-loaded cells; read-out: Agonistic EC50 (365 nm) TRPC4. The text has this:
(§1) We initially screened for the photoswitchability of activity in cells using a fluorometric imaging plate reader (FLIPR) calcium flux assay, with HEK293 cells stably expressing mouse TRPC4β or mouse TRPC5. Note, however, that the parallel-throughput FLIPR setup is limited to use fixed light-emitting diodes at 365 nm (good Z) and 447 nm (suboptimal E), which, combined with the slowness of the onset and recovery of the fluorescence readout for calcium, causes the FLIPR results to underestimate the reagents’ true speed, degree and completion of TRPC chromocontrol (shown later). […]
(§2) 3 Cultured Cell Lines (primarily for Fig. 1 and Fig. 2)
(§3) 3.1 FLIPR Ca2+ influx assay in cell suspensions.
(§4) We initially screened for photoswitchability of activity in cells, using a fluorometric imaging plate reader (FLIPR) calcium flux assay, with human embryonic kidney cell line HEK293 stably transfected to express mouse TRPC4β- or TRPC5-CFP fusion protein (HEKmTRPC4β-CFP / HEKmTRPC5-CFP, HEK293 obtained from ATCC CRL 1573). The FLIPR setup provides high-content data, but it is limited to using LED wavelengths of 365 nm (best-Z) and 447 nm (suboptimal-E), while imaging at 470 nm excitation (Fluo-4 AM as Ca2+ indicator; this imaging light counteracts both PSSs). Therefore, we expected the FLIPR results to under-estimate the true chromocontrol power accessible to the reagents.
(§5) Cells were grown to 70%-90% confluency in a 75-cm2 culture flask, trypsinised, washed and resuspended in BSA-containing (0.1%) HBS, and supplemented with 3 µM Fluo-4/AM. Stably TRPC-transfected cells were induced with tetracycline 24 h prior to the experiments.42,43 After incubation at 37°C for 30 min [Fluo-4 loading], cells were again washed, resuspended, and dispensed (40 µl/well) into black pigmented, clear-bottom 384-well plates (Greiner µ-clear). To image the Fluo-4 fluorescence during the application and photoswitching of test compounds, these plates were first mounted to a Tecan Fluent 480 (Tecan, Männedorf, Switzerland) liquid handling device, equipped with a 384-tip multichannel arm and a gripper arm. A custom-made plate-imaging device was used for photoswitching during fluorescence imaging, which features LED-based excitation modules (365 nm and 447 nm used here for photoswitching, and 470 nm used here for Fluo-4 readout) projected onto the bottom of the microwell plate, with a cooled scientific complementary metal oxide sensor (sCMOS) camera (Zyla 5.5, Andor, Belfast, UK) equipped with a Nokton 42.5 mm f/0.95 (Voigtlaender, Fürth, Germany) for detection. The LEDs were controlled with an Arduino device and constant current drivers (1 A for 365 and 470 nm LEDs; 3 A for 447 nm LED); detection was under the control of Micromanager 2.0 software. Compounds were serially diluted and applied to the Fluo-4-loaded cell suspensions inside this custom plate-imaging device, then fluorescence intensities (under 470 nm excitation) were continuously recorded during programmed illuminations e.g. with alternating 365 nm and 447 nm phases.
(§6) Concentration-response curves for the Z-isomers (channel activation) were then constructed from the maximal signals during 365 nm phases, after a suitable number of "priming" cycles to allow the system to reach stable performance (Supplementary Fig. 13).
All experiments were conducted as a minimum of 3 independent experiments with each experiment averaging data in technical duplicates.
Cellular TRPC4 photoswitching: HEK cell Ca2+ influx photomodulation […]
Supplementary Figure 12. […]

For the next assay, the target named is T2, mouse TRPC5 (Mus musculus, UniProt Q9QX29).
T2 construct: expressed in transfected cells; host or cells: HEK293 (ATCC CRL 1573), stably transfected, tetracycline-induced
T2 sequence (Q9QX29 1-975): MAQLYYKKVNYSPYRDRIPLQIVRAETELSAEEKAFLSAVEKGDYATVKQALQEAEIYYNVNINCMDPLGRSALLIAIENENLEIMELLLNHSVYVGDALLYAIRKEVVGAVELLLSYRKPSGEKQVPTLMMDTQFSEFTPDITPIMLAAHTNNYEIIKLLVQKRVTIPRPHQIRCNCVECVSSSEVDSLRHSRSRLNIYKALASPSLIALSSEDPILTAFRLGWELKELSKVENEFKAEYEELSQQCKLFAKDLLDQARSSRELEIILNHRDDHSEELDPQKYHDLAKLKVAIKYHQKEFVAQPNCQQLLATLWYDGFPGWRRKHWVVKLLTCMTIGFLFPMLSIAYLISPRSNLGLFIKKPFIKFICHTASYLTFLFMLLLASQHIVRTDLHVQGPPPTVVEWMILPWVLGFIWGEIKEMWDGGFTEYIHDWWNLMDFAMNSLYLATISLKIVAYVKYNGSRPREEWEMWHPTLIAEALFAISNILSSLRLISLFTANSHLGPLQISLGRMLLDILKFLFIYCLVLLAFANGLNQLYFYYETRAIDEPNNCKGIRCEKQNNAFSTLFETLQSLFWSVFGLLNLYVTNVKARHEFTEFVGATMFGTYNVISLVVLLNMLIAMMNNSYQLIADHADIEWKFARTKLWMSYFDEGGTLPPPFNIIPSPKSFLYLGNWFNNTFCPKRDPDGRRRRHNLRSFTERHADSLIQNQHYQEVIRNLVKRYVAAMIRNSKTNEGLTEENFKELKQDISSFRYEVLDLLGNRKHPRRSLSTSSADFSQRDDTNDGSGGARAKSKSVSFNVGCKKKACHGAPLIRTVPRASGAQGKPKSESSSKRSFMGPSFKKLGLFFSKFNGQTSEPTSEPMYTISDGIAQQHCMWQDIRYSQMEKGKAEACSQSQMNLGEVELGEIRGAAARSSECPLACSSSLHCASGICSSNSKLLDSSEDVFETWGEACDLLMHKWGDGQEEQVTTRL
Put plainly: FLIPR Ca2+ influx assay (Fluo-4) with 365/447 nm photoswitching, HEK293 stably expressing mouse TRPC5. The conditions noted are these: Z* = mostly-Z PSS under 365 nm LED; Fluo-4-loaded cells; read-out: Agonistic EC50 (365 nm) TRPC5. Format: cell-based.
Source text: as §1, §2, §3, §4, §5, §6
All experiments were conducted as a minimum of 3 independent experiments with each experiment averaging data in technical duplicates. […]
Cellular TRPC5 photoswitching: HEK cell Ca2+ influx photomodulation […]
Supplementary Figure 12. […] All […]
four compounds' profiles are consistent with their being ideal efficacy photoswitches (representative traces from one experiment out of ≥3 independent experiments each run in technical duplicates). […]
log c [nM] log c [nM] log c [nM] log c [nM]
Supplementary Figure 13. Dose-response for Z*-AzPico, Z*-AzPico2, Z*-AzHC, and Z*-AzHC2 on TRPC5 and […]

The subject of assay [1] is Th+ neurons of Th-GCaMP6f-ΔTrpc5 mice. Nature of the assay: GCaMP6f Ca2+ imaging of Th+ neurons in arcuate nucleus brain slices with 355 nm photoswitching, Th-GCaMP6f-ΔTrpc5 (5ko) mice. Conditions: 500 nM; 355 nm pulse.
Source text: slices through the ARC of mice expressing the Ca2+ indicator GCaMP6f in Th+ neurons (Fig. 4),
we investigated (1) whether Ca2+ responses at endogenous TRPC5 expression levels can be
TRPC5 expression using TRPC5-deficient brain slices, (3) whether a dose dependence could be
detected, and (4) whether there are properties in channel activity that can be distinguished between
concentration-response measurements (Fig. 5d).
The target in a further assay is T3, EA-activated TRPC4 (Mus musculus, UniProt Q9QUQ5).
T3 construct: expressed in transfected cells; host or cells: HEK293-mTRPC4β-YFP
T3 sequence (Q9QUQ5 1-890 isoform Q9QUQ5-2): T1 sequence (Q9QUQ5 1-890 isoform Q9QUQ5-2)
Put plainly: FLIPR Ca2+ assay, E isomers silencing EA-activated TRPC4 (HEK293-mTRPC4β-YFP). The conditions noted are these: Inhibitory IC50 (versus 30 nM EA) TRPC4, E isomer, thermally relaxed; 30 nM EA. It is filed as cell-based. From the text:
(§7) (2) The EC50 values are reported as the midpoints of unconstrained sigmoidal fits to the FLIPR data (Fig 1l and Supplementary Fig. 2): with different levels of channel activation / blocking and very different Hill slopes across different compounds, isomers, and the two channels. This argues that the midpoint values only capture one of the several important factors describing the […]
(§8) We believe that it is possible to derive indicative relative values for binding affinity comparing the E and Z isomers of the same compound using only the combination of FLIPR and ephys data as reported in this paper; this analysis is being developed in a separate paper (see also below).
(§9) Supplementary Table 1. Potencies on TRPC4/5 depicted as either simple agonistic potency (blue) or else inhibitory […]
(§10) . Z*-values refer to mostly-Z-isomer reached at PSS at 365 nm, E*-values refer to experiments that initially applied 100% E-isomer (thermally relaxed), though in both cases the Ca2+ imaging in FLIPR with Fluo4-AM uses 470 nm excitation, which may over time promote photoswitching towards a PSS that is intermediate between those of pure-365 nm and all-E; this is controlled for in the more reliable ephys measurements). (Table indices: a, data from ref7; b, data from ref2; c, data from ref3; d, data from ref8.) EC50 [nM] (for simple agonism or EA-competitive inhibition)
(§11) E-AzPico 90 (vs 30 nM EA) 67 (vs 30 nM EA) […]
(§12) orange: inhibitory effect ag.: agonistic effect
(§13) 1.1.1 From always-active antagonists and agonists towards efficacy photoswitches […]
(§14) photoisomerising an azobenzene that is merged in at the C’4 position yielding the compounds […]
deliver (Fig. 1-2) is a powerful support for an efficacy switch interpretation. To indirectly support this further, we also measured the effects of E-AzPico and E-AzHC against EA-activated TRPC4/5. […]
(§15) to be an EA-competitive binder5,9,10), so their efficacy as single agent photoswitches results from E/Z-competitive binding that is determined by their PSS. […]
(§16) Supplementary Table 2. […] (a Inhibitory effect measured against 30 nM EA; b Inhibitory effect measured against 50 nM EA). […]

The target in the next assay is T4, EA-activated TRPC5 (Mus musculus, UniProt Q9QX29).
T4 construct: expressed in transfected cells; host or cells: HEK293-mTRPC5-YFP
T4 sequence (Q9QX29 1-975): T2 sequence (Q9QX29 1-975)
Nature of the assay: FLIPR Ca2+ assay, E isomers silencing EA-activated TRPC5 (HEK293-mTRPC5-YFP). Format: cell-based.
Source text: Müller, Niemeyer, et al., Schaefer & Thorn-Seshold 2025: Ideal Efficacy Photoswitching of TRPC4/5 in Tissue but it can justify why the affinity of the E/Z-isomers may be similar.
as §7, §8, §9, §10, §11, §12, §13, §14
inhibitory effect for the E-isomers (Supplementary Table 1). Essentially, the effects of Pico145 and AM237 are latent within a single (two-state reversibly photoswitchable) molecule. This combination is what we call an efficacy switch (also see main text Fig. 1e-j).
1.1.2 Mechanistic test for efficacy photoswitching […]
deliver (Fig. 1-2) is a powerful support for an efficacy switch interpretation. To indirectly support this further, we also measured the effects of E-AzPico and E-AzHC against EA-activated TRPC4/5.
Both E-isomers bind to TRPC4/5 and inhibit EA-evoked currents with nanomolar potencies (Supplementary Fig. 2, Supplementary Table 2). This supports the hypothesis that E- […]
as §15, §16

SMILES strings stand for the structures.

The values below come from publication PMC12858405, “Ideal efficacy photoswitching for chromocontrol of TRPC4/5 channel functions in live tissues” (Nature Chemical Biology, 2026).

Broadly, the EC50 is the concentration needed to bring the measured effect to its halfway point. As a reminder, the IC50 is the concentration at which inhibition is half-maximal.

Turning to `Cn1c(=O)n(CCCO)c(=O)c2c1nc(Oc1ccc(/N=N\c3ccccc3)c(OC(F)(F)F)c1)n2Cc1ccc(Cl)cc1` [Z*-AzPico], the EC50 on mouse TRPC4β was 3 nM; at mouse TRPC5, 4 nM. Further, in assay [1], the “Ca2+ photoresponse in TRPC5-knockout slices” value is recorded as “maintained”.

Take `Cn1c(=O)n(CCCO)c(=O)c2c1nc(Oc1ccc(/N=N/c3ccccc3)c(Cl)c1)n2Cc1ccc(Cl)cc1` [E-AzHC]: the IC50 is 110 nM at EA-activated TRPC4; 149 nM on EA-activated TRPC5 (Inhibitory IC50 (versus 30 nM EA) TRPC5, E isomer, thermally relaxed, 30 nM EA); 177 nM at EA-activated TRPC5 (Inhibitory IC50 (versus 50 nM EA) TRPC5, E isomer, 50 nM EA).
